Measurements reported in patent publication US20080057086A1, “COLON-TARGETED ORAL FORMULATIONS OF CYTIDINE ANALOGS” (PHARMION CORPORATION, priority 2006, published 2008).
Where two headings read alike, the source gives them in different places.

How the values were obtained:
[1] = tested on: fetal hemoglobin production; conditions: baboons; IV, SC or PO route; PO needed co-administration of THU; 0.25 to 8 mg/kg/d with 20 mg/kg/d THU; cited from earlier work
[2] = tested on: total hemoglobin, fetal hemoglobin and F cells; conditions: sickle cell patients, cited from earlier work
[3] = tested on: human intestinal tissue (jejunum, ileum, colon); experiment: Permeability in viable human intestinal strips (USSING chambers), mucosal to serosal; assay type: in vitro ADME
Source text: (§1) This model allows evaluation of the absorption potential of drugs and differences in drug absorption across the human jejunum, ileum, and colon and is based on Ungell et al. “Membrane Transport of Drugs in Different Regions of the Intestinal Tract of the Rat”, J. Pharm. Sci. 87:360-366, (1998) and Nejdfors et al. “Mucosal in vitro Permeability in the Intestinal Tract of the Pig, the Rat, and Man: Species and Region Related Differences”, Scand. J. Gastroenterol. 35:501-507, (2000). Permeation experiments were performed for 5-azacytidine in the jejunal, ileal, and colonic tissues originating from the same human donor. Post-mortem human whole intestine was obtained from the International Institute for the Advancement of Medicine (IIAM). Tissues were used within 24 hours of the organ's removal. Tissues were maintained in cold transport media before being stripped. The segments were cut along the mesenteric border, the underlying musculature was stripped off, and the epithelium was rinsed with ice cold normal saline. The stripped tissues were mounted within the vertical USSING chambers (Harvard Apparatus, Holliston, Mass.). In these studies, 5-azacytidine permeability was measured in both absolute rate and relative to atenolol (internal control). In all cases the net apparent permeability was assessed in the mucosal to serosal direction only.

[4] = Clinical study of single oral doses of 5-azacytidine (oral formulation of Example 3): PK, bioavailability, safety; assay type: in vivo, human; conditions: for bioavailability: oral, SC reference dose = 135 mg, AUC = 777 ng · h/mL, read-out: F, percent bioavailability compared with historical SC azacitidine data
Description: The study was a multicenter, open-label, single treatment study. Patients were treated with escalating doses, in 20 mg increments, up to 200 mg. The study assessed the safety and tolerability of escalating doses, provided pilot information on the oral bioavailability of the study drug, and provided information on the single dose pharmacokinetics of the study drug after oral administration.
Multicenter, open-label, single-treatment, escalating-dose PK study. […] Single subject cohorts were used for each dose escalation. Subsequent subjects were to be treated at escalating doses, up to 200 mg, in 20 mg increments. Dose escalation was to continue until 1 of the following conditions was reached: • a.
If no safety concerns were identified and no Grade 3 or 4 AEs occurred in these subjects, dose escalation was to continue. […] Serial blood samples for plasma PK analyses were drawn before, and at the following time points after, dosing: 0.5, 1, 1.5, 2, 2.5, 3, 3.5, 4, 4.5, 5, 5.5, 6, 6.5, 7, 8 hours, and 12 hours (if possible). […] PK parameters calculated from plasma concentrations included (but were not limited to) Cmax, Tmax, t1/2, and AUC(0−∞).

leukemic mice = conditions: cited from earlier work
human colonic tissue = experiment: Permeation enhancement in human colonic strips; assay type: in vitro ADME; conditions: without enzymatic inhibition (FIGS. 3, 4)
Source text: as §1

[5] = 1 subject, 60 mg single oral dose
[6] = 1 subject, 80 mg single oral dose
[7] = all 4 subjects, 60 or 80 mg single oral dose
[8] = human, plasma, po, 60 mg, Subject 101, 60 mg single oral dose (Example 3 tablets)
[9] = human, plasma, po, 60 mg, Subject 101, 60 mg single oral dose (Example 3 tablets), read-out: Plasma concentration
[10] = human, plasma, po, 80 mg, Mean (n = 3), 80 mg single oral dose (Example 3 tablets)
[11] = human, plasma, po, 80 mg, Mean of 80 mg dose group (n=3), single oral dose (Example 3 tablets), read-out: Mean plasma concentration
[12] = human, plasma, po, 80 mg, Subject 102, 80 mg single oral dose (Example 3 tablets)
[13] = human, plasma, po, 80 mg, Subject 102, 80 mg single oral dose (Example 3 tablets), read-out: Plasma concentration
[14] = human, plasma, po, 80 mg, Subject 201, 80 mg single oral dose (Example 3 tablets)
[15] = human, plasma, po, 80 mg, Subject 201, 80 mg single oral dose (Example 3 tablets), read-out: Plasma concentration
[16] = human, plasma, po, 80 mg, Subject 202, 80 mg single oral dose (Example 3 tablets)
[17] = human, plasma, po, 80 mg, Subject 202, 80 mg single oral dose (Example 3 tablets), read-out: Plasma concentration
[18] = PO administration with THU versus without, bioassay

Permeability with permeation enhancer (human colonic tissue; various concentrations of Labrafil): did not appear to affect
Structure (SMILES): Nc1ncn([C@@H]2O[C@H](CO)[C@@H](O)[C@H]2O)c(=O)n1 [5-azacytidine, 4-amino-1-β-D-ribofuranosyl-1,3,5-triazin-2(1H)-one]
Fetal hemoglobin production [1]: induce fetal hemoglobin production
Clinical response, SC without THU versus PO with THU ([2]; 2 mg/kg/d SC without THU versus 0.2 mg/kg/d PO with 200 mg/d THU): comparable clinical response
Clinical response (total hemoglobin, fetal hemoglobin and F cell levels) ([2]; 5-azacytidine co-administered with THU): good clinical response
F reticulocyte production ([2]; oral 5-azacytidine 2 mg/kg/d alone): did not result in increased F reticulocyte production
Absolute mucosal to serosal permeability by intestinal region ([3]; colon relative to jejunum and ileum, multiple donors (FIG. 1)): greatest in the colon
Effect of enzymatic inhibitors on absolute permeability ([3]; with ketoconazole and THU, increase maximal in jejunum and ileum, relatively small in colon): increased the absolute permeability in all GI tract regions
Plasma samples with quantifiable 5-azacytidine [4, 5]: 2 samples
Tolerability [4, 5]: well tolerated
Consecutive plasma samples with detectable 5-azacytidine [4, 6]: 4 consecutive samples
Tolerability [4, 6]: well tolerated
Mean plasma concentration ([4]; Mean of 80 mg dose group (n=3), single oral dose (Example 3 tablets), 4.0 h): BLQ
Mean plasma concentration ([4]; Mean of 80 mg dose group (n=3), single oral dose (Example 3 tablets), 4.5 h): BLQ
Mean plasma concentration ([4]; Mean of 80 mg dose group (n=3), single oral dose (Example 3 tablets), 5.0 h): BLQ
Plasma concentration ([4]; Subject 101, 60 mg single oral dose (Example 3 tablets), 0.5 h): BLQ
Plasma concentration ([4]; Subject 101, 60 mg single oral dose (Example 3 tablets), 4.5 h): BLQ
Plasma concentration ([4]; Subject 101, 60 mg single oral dose (Example 3 tablets), 5.0 h): BLQ
Plasma concentration ([4]; Subject 102, 80 mg single oral dose (Example 3 tablets), 0.5 h): BLQ
Plasma concentration ([4]; Subject 102, 80 mg single oral dose (Example 3 tablets), 3.5 h): BLQ
Plasma concentration ([4]; Subject 102, 80 mg single oral dose (Example 3 tablets), 4.0 h): BLQ
Plasma concentration ([4]; Subject 102, 80 mg single oral dose (Example 3 tablets), 4.5 h): BLQ
Plasma concentration ([4]; Subject 102, 80 mg single oral dose (Example 3 tablets), 5.0 h): BLQ
Plasma concentration ([4]; Subject 201, 80 mg single oral dose (Example 3 tablets), 0.5 h): BLQ
Plasma concentration ([4]; Subject 201, 80 mg single oral dose (Example 3 tablets), 5.0 h): BLQ
Plasma concentration ([4]; Subject 202, 80 mg single oral dose (Example 3 tablets), 4.0 h): BLQ
Plasma concentration ([4]; Subject 202, 80 mg single oral dose (Example 3 tablets), 4.5 h): BLQ
Plasma concentration ([4]; Subject 202, 80 mg single oral dose (Example 3 tablets), 5.0 h): BLQ
Grade of AEs possibly related to study drug [4, 7]: Grade 2
Study-drug-related SAEs [4, 7]: No study-drug-related SAEs
bioavailability ([4]; human, plasma, 60 mg, Subject 101, 60 mg single oral dose): 6.7%
bioavailability ([4]; human, plasma, 80 mg, Mean (n = 3), 80 mg single oral dose): 18%
bioavailability ([4]; human, plasma, 80 mg, Subject 102, 80 mg single oral dose): 6.3%
bioavailability ([4]; human, plasma, 80 mg, Subject 201, 80 mg single oral dose): 24%
bioavailability ([4]; human, plasma, 80 mg, Subject 202, 80 mg single oral dose): 22%
AUC(0-inf) [4, 8]: 22.6 ng·h/mL
Cmax [4, 8]: 15.8 ng/mL
Tmax [4, 8]: 3 h
concentration at 0 h [4, 9]: 0 ng/mL
concentration at 1 h [4, 9]: 3.72 ng/mL
concentration at 1.5 h [4, 9]: 4.56 ng/mL
concentration at 2 h [4, 9]: 3.75 ng/mL
concentration at 3 h [4, 9]: 15.8 ng/mL
concentration at 3.5 h ([4]; human, plasma, po, 60 mg, Subject 101, 60 mg single oral dose (Example 3 tablets), 3.5 h, read-out: Plasma concentration): 4.27 ng/mL
concentration at 4 h ([4]; human, plasma, po, 60 mg, Subject 101, 60 mg single oral dose (Example 3 tablets), 4.0 h): 1.55 ng/mL
AUC(0-inf) [4, 10]: 81.5 ng·h/mL
Cmax [4, 10]: 53.2 ng/mL
Tmax [4, 10]: 1.5 h
half-life [4, 10]: 0.361 h
concentration at 0 h [4, 11]: 0 ng/mL
concentration at 0.5 h ([4]; human, plasma, po, 80 mg, Mean of 80 mg dose group (n=3), single oral dose (Example 3 tablets), 0.5 h, read-out: Mean plasma concentration): 1.49 ng/mL
concentration at 1 h [4, 11]: 46.6 ng/mL
concentration at 1.5 h [4, 11]: 53.2 ng/mL
concentration at 2 h [4, 11]: 36.9 ng/mL
concentration at 2.5 h [4, 11]: 17.5 ng/mL
concentration at 3 h [4, 11]: 6.3 ng/mL
concentration at 3.5 h ([4]; human, plasma, po, 80 mg, Mean of 80 mg dose group (n=3), single oral dose (Example 3 tablets), 3.5 h, read-out: Mean plasma concentration): 2.57 ng/mL
AUC(0-inf) [4, 12]: 28.6 ng·h/mL
Cmax [4, 12]: 34.3 ng/mL
Tmax [4, 12]: 1.5 h
half-life [4, 12]: 0.336 h
concentration at 0 h [4, 13]: 0 ng/mL
concentration at 1 h [4, 13]: 9.25 ng/mL
concentration at 1.5 h [4, 13]: 34.3 ng/mL
concentration at 2 h [4, 13]: 11 ng/mL
concentration at 2.5 h [4, 13]: 3.61 ng/mL
concentration at 3 h [4, 13]: 1.4 ng/mL
AUC(0-inf) [4, 14]: 111 ng·h/mL
Cmax [4, 14]: 75.1 ng/mL
Tmax [4, 14]: 2 h
half-life [4, 14]: 0.416 h
concentration at 0 h [4, 15]: 0 ng/mL
concentration at 1 h [4, 15]: 31.5 ng/mL
concentration at 1.5 h [4, 15]: 58.5 ng/mL
concentration at 2 h [4, 15]: 75.1 ng/mL
concentration at 2.5 h [4, 15]: 36.4 ng/mL
concentration at 3 h [4, 15]: 14.1 ng/mL
concentration at 3.5 h ([4]; human, plasma, po, 80 mg, Subject 201, 80 mg single oral dose (Example 3 tablets), 3.5 h, read-out: Plasma concentration): 6.1 ng/mL
concentration at 4 h ([4]; human, plasma, po, 80 mg, Subject 201, 80 mg single oral dose (Example 3 tablets), 4.0 h): 2.43 ng/mL
concentration at 4.5 h ([4]; human, plasma, po, 80 mg, Subject 201, 80 mg single oral dose (Example 3 tablets), 4.5 h): 1.19 ng/mL
AUC(0-inf) [4, 16]: 103 ng·h/mL
Cmax [4, 16]: 99.1 ng/mL
Tmax [4, 16]: 1 h
half-life [4, 16]: 0.366 h
concentration at 0 h [4, 17]: 0 ng/mL
concentration at 0.5 h ([4]; human, plasma, po, 80 mg, Subject 202, 80 mg single oral dose (Example 3 tablets), 0.5 h, read-out: Plasma concentration): 4.46 ng/mL
concentration at 1 h [4, 17]: 99.1 ng/mL
concentration at 1.5 h [4, 17]: 66.7 ng/mL
concentration at 2 h [4, 17]: 24.5 ng/mL
concentration at 2.5 h [4, 17]: 12.5 ng/mL
concentration at 3 h [4, 17]: 3.41 ng/mL
concentration at 3.5 h ([4]; human, plasma, po, 80 mg, Subject 202, 80 mg single oral dose (Example 3 tablets), 3.5 h, read-out: Plasma concentration): 1.61 ng/mL
Tmax ([4]; human, plasma, po, 80 mg, individual subjects who received an 80 mg oral dose (three values), post-dose): 1.5 h
Cmax increase versus the 60 mg dose ([4]; mean 80 mg oral dose): 3.5 fold
Time at which concentrations were below the level of quantitation ([4]; mean 80 mg oral dose): 4.0 h
Apparent oral bioavailability ([4]; oral formulation of Example 3): acceptable for therapeutic treatment
Effect of THU on clearance or degradation of 5-azacytidine (leukemic mice; IP administration with THU, bioassay): little effect
Cmax (leukemic mice; [18]): significantly increased
t1/2 (leukemic mice; [18]): significantly increased
Efficacy with co-administration of THU (leukemic mice; PO with THU, all doses except the highest chronic dose which was toxic): increased efficacy
Effect of THU on pharmacodynamic effects of 5-azacytidine (leukemic mice; acute and chronic IP dosing with THU, except at the highest chronic dose which was toxic): did not influence
Permeability with permeation enhancer (human colonic tissue; various concentrations of TPGS): trend toward greater permeability with increasing levels of TPGS
